From PubChem BioAssay AID624491 (Broad Institute, 2012) come the findings set out here.

The subject of the assay is D54 ERlucT glycosylation luciferase reporter, luminescence, 24 h. The assay can be described thus: blockers of NLG process in reporter cells – D54 ERlucT cells, luminescence, cherry-picks, dose response (AID 624491).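 Further: signal gain reflects blocked N-linked glycosylation of a luciferase reporter; actives raise luciferase signal so AC26 marks activators of the reporter.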

`COc1ccc(C(=O)c2cc(OC)c(OC)c(OC)c2)cc1OC`: the AC26 was 1250 nM. To `COc1ccc(C(=O)/C=C/c2ccc(N(C)C)cc2)c(OC)c1` belongs 11700 nM; to `COc1cc(OC)cc(C(=O)c2c(C)c(C#N)c3ccccn23)c1`, 1220 nM; to `O=C(N/N=C/c1cccc(C(F)(F)F)c1)C1CCN(c2ncc(C(F)(F)F)cc2Cl)CC1`, 5890 nM. In the case of `Cc1ccc2c(CC(=O)NCc3ccco3)coc2c1C`, the AC26 was 7380 nM.

Consider `CC1(C(=O)NCc2ccc(F)c(F)c2)Cc2c(-c3ccc4c(c3)OCO4)ccnc2O1` (stereo not given), for which the AC26 was 6730 nM. To `O=C(Nc1ccncc1)C1CCCN(S(=O)(=O)c2cccc3cccnc23)C1` (stereo not given) belongs 579 nM; to `CCN(CC)CCOc1c(Br)ccc2c1sc1nc3n(c(=O)c12)CCC3`, 3070 nM. To `COc1cccc(CNC(=O)COC(=O)c2ccc(-c3ccc(O)cc3)cc2)c1` belongs 685 nM. For `COc1ccc2[nH]c(C(=O)N3CCN(Cc4ccccc4)CC3)cc2c1OC`, the AC26 was 1130 nM. On to `CCn1c2ccccc2c2cc(NC(=O)c3cc(OC)c(OC)c(OC)c3)ccc21`, for which the AC26 was 605 nM. In the case of `COc1ccc(S(=O)(=O)Nc2cc3c(cc2C(C)=O)OCO3)cc1`, the AC26 was 5560 nM. To `COc1cc(N)ccc1Nc1c2ccccc2nc2ccccc12` belongs 70 nM; to `Cc1[nH]nc2c1C(c1cccc(O)c1)C1=C(CC(C)(C)CC1=O)N2` (stereo not given), 1870 nM; to `COc1ccc(C)cc1NC(=O)CCCNC(=O)Cn1cnc2sc(C)c(C)c2c1=O`, 7090 nM. On to `Cc1cccc(NC(=O)c2cnn3ccccc23)c1C`, for which the AC26 is 9570 nM. For the molecule `C[C@@]12C(=O)Nc3ccc(Br)cc3C(=O)N1[C@H]1c3ccccc3OC[C@@H]1[C@@H]2c1ccccc1`, the AC26 is 368 nM. As for `Cc1c(-c2cccc(Cl)c2)nc2ccccc2c1C(=O)OC/C(O)=C(\C#N)c1nc2ccccc2[nH]1`, the AC26 was 5750 nM. `CCN(CC)S(=O)(=O)c1ccc(-c2nnc(SCC(=O)N3CCc4ccccc43)o2)cc1`: the AC26 was 1460 nM. On to `Clc1ccc(CSc2cnnc3ccccc23)cc1Cl`, for which the AC26 is 13500 nM. With `O=c1cc(-c2ccccc2)[nH]c2ccc(F)cc12` the figure was 198 nM. With `CCOc1ccc(N2CCc3c(C)nc(SC)nc32)cc1`, the AC26 was 2650 nM.

As for `CCOC(=O)c1c(C)nc2c(c1-c1cc(OC)c(OC)c(OC)c1)C(=O)c1ccccc1-2`, the AC26 is 1560 nM. With `CCN(CC)c1ccc(/C=N/NC(=O)c2cnccn2)cc1` the figure was 780 nM. To `COc1cccc(C2=NOC(C(=O)NCc3ccccc3)C2)c1` (stereo not given) belongs 73.2 nM; to `O=C(C=Cc1ccccc1O)c1ccccc1O`, 2850 nM. With `CN(C)/N=C/C=C1\CCC/C(=C\c2ccc(F)c(F)c2)C1=O` the figure was 966 nM; with `COc1cc(COCC(O)CN2CCN(CCN3C(=O)c4cccc5cccc(c45)C3=O)CC2)cc(OC)c1OC` (stereo not given), 1230 nM; with `CCOC(=O)c1c(NC(=O)CN2C(=O)NC3(CCCCC3C)C2=O)sc(C)c1CC` (stereo not given), 6750 nM. `Cc1ccc(COc2ccccc2-c2cc(C(=O)N/N=C/c3cccnc3)[nH]n2)cc1`: the AC26 was 5260 nM. For the molecule `COCCCNC(=O)c1ccc(-c2c(C)noc2C)c2ccoc12`, the AC26 was 4060 nM. With `O=C1CCCN1CCCNc1nc(NCc2ccccc2)nc2ccsc12` the figure was 4240 nM; with `COc1ccccc1N=CC1=C(O)CC(c2ccccc2)CC1=O` (stereo not given), 2740 nM; with `COc1ccc(-c2cc(C(F)F)n3ncc(C(=O)N4CCc5ccccc54)c3n2)cc1`, 2500 nM. Take `CN1CCc2nc3sc(C#N)c(N)c3c(-c3cccs3)c2C1`: the AC26 was 261 nM. Regarding `CCn1c2ccccc2c2cc(Nc3cc(C)nc4ncnn34)ccc21`, the AC26 was 69.8 nM. To `Cc1cc([N+](=O)[O-])ccc1-c1ccc(/C=N/NC(=O)c2ccc(Br)o2)o1` belongs 4510 nM; to `O=C(N/N=C/c1ccc(Cl)cc1)c1sccc1OCc1ccc(F)cc1`, 83.6 nM; to `O=C(NCCc1ccccc1)C1c2ccccc2C(=O)N1Cc1cccs1` (stereo not given), 2690 nM.

Turning to `Cc1ccc(N2CC(C(=O)Nc3ccc(S(=O)(=O)N4CCOCC4)cc3)CC2=O)cc1Cl` (stereo not given), the AC26 was 3860 nM. Regarding `Cc1ccc(C(c2cc(Cl)c3cccnc3c2O)N2CCN(C)CC2)cc1` (stereo not given), the AC26 was 1280 nM. To `COc1ccc(-c2nc(C(N)=O)c3[nH]c(=O)n(-c4cccc(Cl)c4)c3n2)cc1OC` belongs 5880 nM.

For `CCn1c2ccccc2c2cc(NC(=O)COC(=O)c3cc(S(N)(=O)=O)c(Cl)cc3Cl)ccc21`, the AC26 is 3710 nM.

As for `COc1cccc(-c2cnc3c(NC=O)cc(-c4cc(C)c(O)c(C)c4)cn23)c1`, the AC26 was 2140 nM. With `CCN1C(=O)c2cccc3c(S(=O)(=O)Nc4ccccc4OC)ccc1c23` the figure was 4240 nM; with `CC(=O)n1cc(/C=N/NC(=O)c2sc(C)nc2C)c2ccccc21`, 10000 nM. Regarding `CC(=O)Nc1ccc(CNc2ncnc3ccc(-c4c(C)noc4C)cc23)cc1`, the AC26 was 290 nM. To `COc1ccc(C2=NOC(C(=O)NCc3cccs3)C2)cc1` (stereo not given) belongs 1010 nM. To `O=C(NCCCN1CCOCC1)c1cc(-c2ccc(F)cc2)on1` belongs 14000 nM; to `O=C(NCCCn1ccnc1)c1cc(-c2cccs2)on1`, 3430 nM. To `O=C(c1cn(Cc2ccccc2)nc1-c1ccccc1)N1CCN(c2ccccn2)CC1` belongs 999 nM.

Regarding `COc1ccc(N2CCc3c(C)nc4c(OC)cc(OC)cc4c32)cc1`, the AC26 was 3770 nM. Consider `COc1cc(Nc2nc3c(N)cc(C(F)(F)F)cc3nc2-c2ccccc2)cc(OC)c1OC`, for which the AC26 is 868 nM.

Take `Nc1ccc(C(=O)Nc2ccccc2N)cc1`: the AC26 is 2880 nM. With `CCOC(=O)[C@H]1[C@H]2COc3ccc(Br)cc3[C@@H]2N2C(=O)c3cc(OC)c(OC)cc3NC(=O)[C@@]12C` the figure was 4040 nM.

Take `COc1cc(C2CC(=O)Nc3cc(C)c(C)cc32)cc(OC)c1OC` (stereo not given): the AC26 is 8880 nM. To `Cn1cccc1/C=C1\C(=O)NC(=O)N(Cc2ccccc2Cl)C1=O` belongs 2490 nM; to `CC(=O)c1cccc(-c2ccnc3c2CC(C(=O)Nc2ccc4c(c2)OCO4)O3)c1` (stereo not given), 2430 nM; to `CCOC(=O)c1[nH]c(C)c(C(=O)N2CCc3ccccc32)c1C`, 133 nM.

In the case of `Cc1cccc(N2CCN(C(=O)c3ccncc3)CC2)c1C`, the AC26 was 11400 nM. Consider `CC1(C(=O)NCc2cccs2)Cc2c(-c3cccc(C(F)(F)F)c3)ccnc2O1` (stereo not given), for which the AC26 was 15100 nM. On to `CCC(c1nc2ccccc2c(=O)n1-c1nc2ccccc2s1)N1C(=O)c2ccccc2C1=O` (stereo not given), for which the AC26 is 1030 nM. With `CN(Cc1ccccc1)c1nc2c(c(=O)[nH]c(=O)n2C)n1CCCc1ccccc1`, the AC26 was 2830 nM. For the molecule `COc1ccc(CC(=O)NCc2ccc(-n3cccc3)cc2)cc1OC`, the AC26 was 825 nM. `c1ccc(Cc2nnc(Sc3ccccc3)c3ccccc23)cc1`: the AC26 was 5170 nM. Consider `CC1=CC(C)[C@H](/C=N/n2c(=O)[nH]c3c([nH]c4ccc(C)cc43)c2=O)C(C)C1` (stereo not given in full), for which the AC26 was 4040 nM.

`CC1(C(=O)NCc2ccco2)Cc2c(-c3ccc(C(N)=O)cc3)ccnc2O1` (stereo not given): the AC26 was 1390 nM. In the case of `Cc1cc(C)c2c(c1)cc(C)c1nnc(SCC(=O)Nc3cc(C)on3)n12`, the AC26 is 12000 nM. To `CCOC(=O)/C(=C/c1c(C)n(C)c2ccc([N+](=O)[O-])cc12)C(C)=O` belongs 4230 nM.

As for `CCN(CC)CCNc1ccc(CO)c2oc3ccccc3c(=O)c12`, the AC26 was 1280 nM.

On to `Cc1ccnc2nc(C(=O)Nc3cc(Cl)ccc3N3CCOCC3)nn12`, for which the AC26 is 659 nM.

As to `CC(=O)c1sc(Nc2cccc3ccccc23)nc1C`, the AC26 is 6110 nM.

On to `COc1ccccc1NC1=NC(c2ccc(Cl)cc2)N=C(N)N1` (stereo not given), for which the AC26 was 1370 nM. `Cc1cc(Cl)ccc1OCCCC(=O)NO`: the AC26 is 2730 nM. For the molecule `COc1ccccc1N1CCN(C(=O)c2oc3ccccc3c2C)CC1`, the AC26 was 8000 nM.
